How the values were obtained:
[1] = biological target: T1, SUPT3H_C268 (Homo sapiens, UniProt O75486); experiment: IA-DTB cysteine engagement; type: binding; details: 22Rv1 cells, 20 μM probe, 1 h, relative to DMSO
T1 construct: endogenous in cells; host or cells: 22Rv1
T1 sequence (O75486 1-317): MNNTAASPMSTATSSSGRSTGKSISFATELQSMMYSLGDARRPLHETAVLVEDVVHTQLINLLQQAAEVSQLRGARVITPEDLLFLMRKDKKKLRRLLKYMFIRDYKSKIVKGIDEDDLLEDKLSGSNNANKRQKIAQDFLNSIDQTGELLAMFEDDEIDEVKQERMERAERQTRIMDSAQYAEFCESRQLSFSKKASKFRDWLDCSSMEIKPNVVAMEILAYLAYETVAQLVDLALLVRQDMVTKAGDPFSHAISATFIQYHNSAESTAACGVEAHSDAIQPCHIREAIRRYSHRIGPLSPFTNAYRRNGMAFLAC
Procedure, shortened: (§1)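 Cells were treated in situ with electrophilic probes, then lysed, and the lysates (2 mg/mL protein) were labeled with IA-DTB for 1 h at ambient temperature. After reduction, alkylation and trypsin digestion, labeled peptides were streptavidin-enriched, TMT-labeled and fractionated. Engagement ratios are probe vs DMSO reporter intensities, averaged across replicates.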

[2] = biological target: T2, CEP128_C915 (Homo sapiens, UniProt Q6ZU80); experiment: IA-DTB cysteine engagement; type: binding; details: 22Rv1 cells, 20 μM probe, 1 h, relative to DMSO
T2 construct: endogenous in cells; host or cells: 22Rv1
T2 sequence (Q6ZU80 1-1094): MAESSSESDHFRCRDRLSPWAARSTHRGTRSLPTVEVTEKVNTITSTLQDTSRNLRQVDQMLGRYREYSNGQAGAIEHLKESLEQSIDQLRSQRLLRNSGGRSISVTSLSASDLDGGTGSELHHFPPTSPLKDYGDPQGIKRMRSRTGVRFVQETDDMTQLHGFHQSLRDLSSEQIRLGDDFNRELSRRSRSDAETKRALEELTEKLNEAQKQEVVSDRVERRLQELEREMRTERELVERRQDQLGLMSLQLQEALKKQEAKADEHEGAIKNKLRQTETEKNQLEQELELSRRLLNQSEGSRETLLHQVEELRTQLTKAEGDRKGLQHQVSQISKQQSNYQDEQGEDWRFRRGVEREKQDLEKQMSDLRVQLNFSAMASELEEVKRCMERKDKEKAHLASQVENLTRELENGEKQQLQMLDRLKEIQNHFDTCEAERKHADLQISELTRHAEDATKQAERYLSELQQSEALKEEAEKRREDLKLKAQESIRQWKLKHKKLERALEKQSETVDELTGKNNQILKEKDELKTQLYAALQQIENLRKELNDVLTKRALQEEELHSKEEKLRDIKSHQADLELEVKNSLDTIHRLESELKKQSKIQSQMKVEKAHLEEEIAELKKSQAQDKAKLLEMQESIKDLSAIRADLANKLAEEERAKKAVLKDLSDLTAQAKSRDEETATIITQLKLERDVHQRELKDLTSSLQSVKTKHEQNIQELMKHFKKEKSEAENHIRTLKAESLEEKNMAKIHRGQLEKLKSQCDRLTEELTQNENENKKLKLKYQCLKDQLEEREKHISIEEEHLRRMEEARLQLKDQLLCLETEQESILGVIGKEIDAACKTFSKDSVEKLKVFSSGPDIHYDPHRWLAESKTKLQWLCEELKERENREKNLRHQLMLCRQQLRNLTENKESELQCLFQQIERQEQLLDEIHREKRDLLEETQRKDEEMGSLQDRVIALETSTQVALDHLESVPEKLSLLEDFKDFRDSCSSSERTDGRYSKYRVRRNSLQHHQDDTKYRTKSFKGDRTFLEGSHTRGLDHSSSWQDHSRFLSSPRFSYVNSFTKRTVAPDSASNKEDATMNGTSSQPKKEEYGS
Procedure, shortened: as §1

C=CC(=O)N1C[C@H](c2ccc(Br)cc2)[C@H]1C(=O)Nc1cccc2cccnc12 [MY-3A, (2S,3S)-1-acryloyl-3-(4-bromophenyl)-N-(quinolin-8-yl)azetidine-2-carboxamide]
% engagement SUPT3H_C268 [1]: 62.5% | % engagement CEP128_C915 [2]: 7%

C=CC(=O)N1C[C@H](c2ccc(Br)cc2)[C@@H]1C(=O)Nc1cccc2cccnc12 [MY-1B, (2R,3S)-1-acryloyl-3-(4-bromophenyl)-N-(quinolin-8-yl)azetidine-2-carboxamide]
% engagement SUPT3H_C268 [1]: 34.5% | % engagement CEP128_C915 [2]: 67.5%

C=CC(=O)N1C[C@H](c2ccc(Br)cc2)[C@H]1C(=O)Nc1cccc2cccnc12 [MY-3B, (2S,3S)-1-acryloyl-3-(4-bromophenyl)-N-(quinolin-8-yl)azetidine-2-carboxamide]
% engagement SUPT3H_C268 [1]: 70.5% | % engagement CEP128_C915 [2]: 25%

C=CC(=O)N1C[C@@H](c2ccc(Br)cc2)[C@H]1C(=O)Nc1cccc2cccnc12 [MY-1A, (2S,3R)-1-acryloyl-3-(4-bromophenyl)-N-(quinolin-8-yl)azetidine-2-carboxamide]
% engagement SUPT3H_C268 [1]: 27% | % engagement CEP128_C915 [2]: −13%

— patent US20250034216A1, “STEREOSELECTIVE COVALENT LIGANDS FOR ONCOGENIC AND IMMUNOLOGICAL PROTEINS” (The Scripps Research Institute, priority 2021, published 2025)
